From patent US20100267561A1, “HERBICIDAL PYRIDAZINONE DERIVATIVES” (priority 2007, published 2010)

Columns and labels:
Type in all cases: in vivo
corn (Zea mays) = test: Test A pre-/postemergence plant response
How it was run: (§1)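 Seeds sown in loam–sand blend; test chemicals in non-phytotoxic solvent with surfactant applied preemergence as directed soil spray and, concurrently, postemergence to plants 2–10 cm tall at one- to two-leaf stage. Greenhouse ~10 days, then visual injury rating vs untreated controls on 0–100 scale (0 = no effect, 100 = complete control).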

[1] = tested on: giant foxtail (Setaria faberi); test: Test A pre-/postemergence plant response
How it was run: as §1

[2] = tested on: Italian ryegrass (Lolium multiflorum); test: Test B pre-/postemergence plant response; conditions: for Ryegrass, Italian plant response rating: 8 g ai/ha
Source text: (§2) Seeds of plant species selected from blackgrass (Alopecurus myosuroides), downy bromegrass (Bromus tectorum), green foxtail (Setaria viridis), Italian ryegrass (Lolium multiflorum), wheat (Triticum aestivum), wild oat (Avena fatua), catchweed bedstraw (Galium aparine), bermudagrass (Cynodon dactylon), surinam grass (Brachiaria decumbens), cocklebur (Xanthium strumarium), corn (Zea mays), large crabgrass (Digitaria sanguinalis), woolly cupgrass (Eriochloa villosa), giant foxtail (Setaria faberii), goosegrass (Eleusine indica), johnsongrass (Sorghum halepense), kochia (Kochia scoparia), lambsquarters (Chenopodium album), morningglory (Ipomoea coccinea), eastern black (E.B.) nightshade (Solanum ptycanthum), yellow nutsedge (Cyperus esculentus), pigweed (Amaranthus retroflexus), common ragweed (Ambrosia elation), Russian thistle (Salsola iberica), soybean (Glycine max), common (oilseed) sunflower (Helianthus annuus), and velvetleaf (Abutilon theophrasti) were planted and treated preemergence with test chemicals formulated in a non-phytotoxic solvent mixture which included a surfactant.
(§3) At the same time, plants selected from these crop and weed species and also winter barley (Hordeum vulgare), canarygrass (Phalaris minor), chickweed (Stellaria media) and windgrass (Apera spica-venti) were treated with postemergence applications of some of the test chemicals formulated in the same manner. Plants ranged in height from 2 to 18 cm (1- to 4-leaf stage) for postemergence treatments.
(§4) Plant species in the flooded paddy test consisted of rice (Oryza sativa), umbrella sedge (Cyperus difformis), ducksalad (Heteranthera limosa) and barnyardgrass (Echinochloa crus-galli) grown to the 2-leaf stage for testing. At time of treatment, test pots were flooded to 3 cm above the soil surface, treated by application of test compounds directly to the paddy water, and then maintained at that water depth for the duration of the test. Treated plants and controls were maintained in a greenhouse for 13 to 15 days, after which time all species were compared to controls and visually evaluated. Plant response ratings, summarized in Table B, are based on a scale of 0 to 100 where 0 is no effect and 100 is complete control. A dash (-) response means no test result.

[3] = tested on: bermudagrass (Cynodon dactylon); test: Test B pre-/postemergence plant response; conditions: for Bermudagrass plant response rating: 8 g ai/ha
Source text: as §2, §3, §4

[4] = tested on: common (oilseed) sunflower (Helianthus annuus); test: Test B pre-/postemergence plant response; conditions: Preemergence
Source text: as §2, §3, §4

[5] = tested on: eastern black (E.B.) nightshade (Solanum ptycanthum); test: Test B pre-/postemergence plant response; conditions: Preemergence
Source text: as §2, §3, §4

[6] = tested on: johnsongrass (Sorghum halepense); test: Test B pre-/postemergence plant response; conditions: for Johnsongrass plant response rating: 8 g ai/ha
Source text: as §2, §3, §4

kochia (Kochia scoparia) = test: Test B pre-/postemergence plant response; conditions: for Kochia plant response rating: 8 g ai/ha
Source text: as §2, §3, §4

soybean (Glycine max) = test: Test B pre-/postemergence plant response
Source text: as §2, §3, §4

[7] = tested on: velvetleaf (Abutilon theophrasti); test: Test B pre-/postemergence plant response; conditions: for Velvetleaf plant response rating: 8 g ai/ha
Source text: as §2, §3, §4

[8] = tested on: wheat (Triticum aestivum); test: Test B pre-/postemergence plant response; conditions: for Wheat plant response rating: 8 g ai/ha
Source text: as §2, §3, §4

[9] = tested on: yellow nutsedge (Cyperus esculentus); test: Test B pre-/postemergence plant response
Source text: as §2, §3, §4

[10] = Postemergence, 125 g ai/ha, 0 to 100 scale, 0 no effect, 100 complete control
[11] = Postemergence, 500 g ai/ha, 0 to 100 scale, 0 no effect, 100 complete control
[12] = Preemergence, 125 g ai/ha, 0 to 100 scale (0 no effect, 100 complete control)
[13] = Preemergence, 500 g ai/ha, 0 to 100 scale (0 no effect, 100 complete control)
[14] = Postemergence, 16 g ai/ha, scale 0 to 100
[15] = Postemergence, 31 g ai/ha, scale 0 to 100, 0 no effect, 100 complete control
[16] = Postemergence, 62 g ai/ha, scale 0 to 100
[17] = Preemergence, 16 g ai/ha, scale 0 to 100 (0 no effect, 100 complete control)
[18] = Preemergence, 62 g ai/ha, scale 0 to 100
[19] = Preemergence, 31 g ai/ha, 0 to 100 scale, 0 no effect, 100 complete control
[20] = 16 g ai/ha, scale 0 to 100 (0 no effect, 100 complete control)
[21] = 31 g ai/ha, 0 to 100 scale, 0 no effect, 100 complete control
[22] = 8 g ai/ha, postemergence, 0-100 scale

CCc1cc(-c2ccc(Cl)cc2)nn1-c1c(O)cnn(C)c1=O [Compound 21]
Plant response rating, Corn (corn (Zea mays); [10]): 80 | Plant response rating, Corn (corn (Zea mays); [11]): 90 | Plant response rating, Corn (corn (Zea mays); [12]): 90 | Plant response rating, Corn (corn (Zea mays); [13]): 100 | Plant response rating, Foxtail, Giant [1, 10]: 100 | Plant response rating, Foxtail, Giant [1, 11]: 100 | Plant response rating, Foxtail, Giant [1, 12]: 100 | Plant response rating, Foxtail, Giant [1, 13]: 100 | Ryegrass, Italian plant response rating ([2]; postemergence, 0-100 scale): 98 | Plant response rating, Ryegrass, Italian [2, 14]: 100 | Plant response rating, Ryegrass, Italian [2, 15]: 100 | Plant response rating, Ryegrass, Italian [2, 16]: 100 | Plant response rating, Ryegrass, Italian [2, 17]: 100 | Plant response rating, Ryegrass, Italian [2, 18]: 100 | Ryegrass, Italian plant response rating ([2]; Preemergence, scale 0 to 100): 90 | Bermudagrass plant response rating ([3]; postemergence, 0-100 scale): 40 | Plant response rating, Bermudagrass [3, 14]: 60 | Plant response rating, Bermudagrass [3, 15]: 80 | Plant response rating, Bermudagrass [3, 16]: 100 | Bermudagrass plant response rating ([3]; Preemergence, scale 0 to 100 (0 no effect, 100 complete control)): 60 | Plant response rating, Bermudagrass [3, 17]: 80 | Plant response rating, Bermudagrass [3, 19]: 85 | Plant response rating, Bermudagrass [3, 18]: 100 | Plant response rating, Sunflower [4, 20]: 0 | Plant response rating, Sunflower [4, 21]: 0 | Plant response rating, Sunflower ([4]; 62 g ai/ha, scale 0 to 100): 0 | Plant response rating, Nightshade, E. B. [5, 20]: 0 | Plant response rating, Nightshade, E. B. [5, 21]: 0 | Nightshade, E. B. plant response rating ([5]; 8 g ai/ha, scale 0 to 100): 0 | Johnsongrass plant response rating ([6]; postemergence, 0-100 scale): 60 | Plant response rating, Johnsongrass [6, 14]: 90 | Plant response rating, Johnsongrass [6, 15]: 90 | Plant response rating, Johnsongrass [6, 16]: 100 | Plant response rating, Johnsongrass [6, 17]: 85 | Plant response rating, Johnsongrass [6, 19]: 90 | Plant response rating, Johnsongrass [6, 18]: 100 | Johnsongrass plant response rating ([6]; Preemergence, scale 0 to 100): 0 | Kochia plant response rating (kochia (Kochia scoparia); postemergence, 0-100 scale): 0 | Plant response rating, Kochia (kochia (Kochia scoparia); [14]): 0 | Plant response rating, Kochia (kochia (Kochia scoparia); [15]): 0 | Plant response rating, Kochia (kochia (Kochia scoparia); [16]): 0 | Plant response rating, Kochia (kochia (Kochia scoparia); [17]): 0 | Plant response rating, Kochia (kochia (Kochia scoparia); [19]): 0 | Plant response rating, Kochia (kochia (Kochia scoparia); [18]): 0 | Kochia plant response rating (kochia (Kochia scoparia); Preemergence, scale 0 to 100): 0 | Soybean plant response rating (soybean (Glycine max); [22]): 0 | Plant response rating, Soybean (soybean (Glycine max); [14]): 0 | Plant response rating, Soybean (soybean (Glycine max); [15]): 0 | Plant response rating, Soybean (soybean (Glycine max); [16]): 10 | Plant response rating, Soybean (soybean (Glycine max); [19]): 0 | Velvetleaf plant response rating ([7]; postemergence, 0-100 scale): 0 | Plant response rating, Velvetleaf [7, 14]: 0 | Plant response rating, Velvetleaf [7, 15]: 0 | Plant response rating, Velvetleaf [7, 16]: 0 | Plant response rating, Velvetleaf [7, 19]: 0 | Plant response rating, Velvetleaf [7, 18]: 0 | Velvetleaf plant response rating ([7]; Preemergence, scale 0 to 100): 0 | Wheat plant response rating ([8]; postemergence, 0-100 scale): 50 | Plant response rating, Wheat [8, 14]: 85 | Plant response rating, Wheat [8, 15]: 90 | Plant response rating, Wheat [8, 16]: 100 | Plant response rating, Wheat [8, 17]: 30 | Plant response rating, Wheat [8, 19]: 85 | Plant response rating, Wheat [8, 18]: 95 | Wheat plant response rating ([8]; Preemergence, scale 0 to 100): 0 | Nutsedge, Yellow plant response rating [9, 22]: 0 | Plant response rating, Nutsedge, Yellow [9, 14]: 0 | Plant response rating, Nutsedge, Yellow [9, 15]: 0 | Plant response rating, Nutsedge, Yellow [9, 16]: 0 | Plant response rating, Nutsedge, Yellow [9, 17]: 0 | Plant response rating, Nutsedge, Yellow [9, 19]: 0 | Plant response rating, Nutsedge, Yellow [9, 18]: 0
